Drawing on US20040102442A1, “Remedies for alzheimer's disease” (priority 2000, published 2004), this text covers IC50 for seven compounds.

pIC50: −log10 of the molar value.

The target in this assay is T1, Human type-X sPLA2 (Homo sapiens, UniProt O15496).
T1 construct: made in house; host or cells: CHO cells, stably transfected with a pSVL expression vector; culture supernatant used as the enzyme source
T1 sequence (O15496 43-165): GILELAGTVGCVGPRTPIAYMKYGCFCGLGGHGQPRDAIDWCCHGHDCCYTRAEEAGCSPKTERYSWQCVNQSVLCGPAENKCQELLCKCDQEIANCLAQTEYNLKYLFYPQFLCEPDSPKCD
As to the kind of experiment: type-X sPLA2 inhibition test (chromogenic assay, diheptanoylthio PC). Format: biochemical. The conditions noted are these: diheptanoylthio PC 1 mM, Triton X-100 0.3 mM, 30 min at 40° C., absorbance at 405 nm. The source says: cDNA sequence encoding human type-X sPLA2 (Cupillard et al., J. Biol. Chem, 1997, 272, 15745-15752) was inserted into the downstream region of the promoter of pSVL SV40 Late Promoter Expression Vector (Amersham Pharmacia Biotech Inc.) that is an expression vector for mammalian cells. The obtained expression vector was transfected into the host CHO cells with a LipofectAMINE reagent (Gibco BRL Inc.) according to the manufacture's instruction to obtain the CHO cells stably expressing human type-X sPLA2. The transfected cell was cultured in A-MEM medium containing 10% fetal calf serum for 3 days and its culture supernatant was used for the measurement of each enzyme activity.
In order to identify and evaluate an inhibitor of type-X sPLA2, the following chromogenic assay is utilized. This assay has been applied for high volume screening using a 96-well microtiterplate. A general explanation for this assay is described in “Analysis of Human Synovial Fluid Phospholipase A2 on Short Chain Phosphatidylcholine-Mixed Micelles: Development of a Spectrophotometric Assay Suitable for a Micortiterplate Reader” (Analytical Biochemistry, 204, pp 190-197, 1992 by Laure. J. Reynolds. Lori L. Hughes and Edward A. Dennis.
Human type-X sPLA2 was incubated (30 min at 40° C. (15 μl/well)) with diheptanoylthio PC (1 mM) in the presence of Triton X-100 (0.3 mM) and 5,5′-dithiobis(2-nitrobenzoic acid) (125 μM) in Tris-HCl buffer (25 mM, pH 7.5) containing CaCl2 (10 mM), KCl (100 mM), and bovine serum albumin (1.0 mg/mL). The changes in the absorbance at 405 nm were measured and the inhibition activities were calculated.
The term pIC50 denotes the negative decadic logarithm of the IC50, by convention in mol/L. Read a low pIC50 as a high IC50. In the case of `CCc1c(C(=O)C(N)=O)c2c(OCC(=O)O)nc(-c3ccccc3)cn2c1Cc1ccccc1` [Compound 3], the pIC50 is 8.30.
`CCc1c(C(=O)C(N)=O)c2c(OCC(=O)O)nc(C3CCCCC3)cn2c1Cc1ccccc1` [Compound 16] gave a negative logarithm of the IC50 (pIC50) of 8.15.
In turn, `CCCc1c(C(=O)C(N)=O)c2c(OCC(=O)O)nc(C)cn2c1CC1CCCCC1` [Compound 5] had a pIC50 of 7.92.
Take `CCc1c(C(=O)C(N)=O)c2c(OCC(=O)O)nc(C)cn2c1Cc1ccccc1Cc1ccccc1` [Compound 2]: the negative logarithm of the IC50 (pIC50) is 8.00.
Take `CCc1c(C(=O)C(N)=O)c2c(OCC(=O)NS(=O)(=O)c3ccccc3)cccc2n1Cc1ccccc1` [Compound 18]: the pIC50 is 7.80.
In turn, `CCCc1c(C(=O)C(N)=O)c2c(OCC(=O)O)nc(C)cn2c1Cc1ccccc1` [Compound 4] gave a pIC50 of 7.57.
For the compound `CCc1c(C(=O)C(N)=O)c2c(OCC(=O)O)nc(C)cn2c1Cc1cccc(-c2ccccc2)c1` [Compound 1], the negative-log IC50 (pIC50) is 8.00.
